# In patent publication US9101616B2, “Aryl substituted carboxamide derivatives as calcium or sodium channel blockers” (RaQualia Pharma Inc., priority 2009, dated 2015):
# Columns and labels:
# chronic pain = conditions: in vivo; cited from earlier work
# rats = conditions: rat, in vivo; cited from earlier work
# [1] = biological target: T1, human T-type channel alpha-1H (CaV 3.2) (Homo sapiens, UniProt O95180); test: Ca2+ Influx Assay (cell-based fluorescent, FDSS); conditions: HEK 293 cells expressing human CaV 3.2
# T1 construct: expressed in transfected cells; host or cells: HEK 293
# Outline: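 HEK293 cells stably expressing human CaV3.2, loaded with Fluo-4-AM 1 h at 37 °C. Compound added 4.5 min before potassium ionophore, then high-K+ depolarization with fluorescence monitored on FDSS. IC50 from 7-point dose-response, duplicate wells.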
# T1 sequence (O95180 whole entry): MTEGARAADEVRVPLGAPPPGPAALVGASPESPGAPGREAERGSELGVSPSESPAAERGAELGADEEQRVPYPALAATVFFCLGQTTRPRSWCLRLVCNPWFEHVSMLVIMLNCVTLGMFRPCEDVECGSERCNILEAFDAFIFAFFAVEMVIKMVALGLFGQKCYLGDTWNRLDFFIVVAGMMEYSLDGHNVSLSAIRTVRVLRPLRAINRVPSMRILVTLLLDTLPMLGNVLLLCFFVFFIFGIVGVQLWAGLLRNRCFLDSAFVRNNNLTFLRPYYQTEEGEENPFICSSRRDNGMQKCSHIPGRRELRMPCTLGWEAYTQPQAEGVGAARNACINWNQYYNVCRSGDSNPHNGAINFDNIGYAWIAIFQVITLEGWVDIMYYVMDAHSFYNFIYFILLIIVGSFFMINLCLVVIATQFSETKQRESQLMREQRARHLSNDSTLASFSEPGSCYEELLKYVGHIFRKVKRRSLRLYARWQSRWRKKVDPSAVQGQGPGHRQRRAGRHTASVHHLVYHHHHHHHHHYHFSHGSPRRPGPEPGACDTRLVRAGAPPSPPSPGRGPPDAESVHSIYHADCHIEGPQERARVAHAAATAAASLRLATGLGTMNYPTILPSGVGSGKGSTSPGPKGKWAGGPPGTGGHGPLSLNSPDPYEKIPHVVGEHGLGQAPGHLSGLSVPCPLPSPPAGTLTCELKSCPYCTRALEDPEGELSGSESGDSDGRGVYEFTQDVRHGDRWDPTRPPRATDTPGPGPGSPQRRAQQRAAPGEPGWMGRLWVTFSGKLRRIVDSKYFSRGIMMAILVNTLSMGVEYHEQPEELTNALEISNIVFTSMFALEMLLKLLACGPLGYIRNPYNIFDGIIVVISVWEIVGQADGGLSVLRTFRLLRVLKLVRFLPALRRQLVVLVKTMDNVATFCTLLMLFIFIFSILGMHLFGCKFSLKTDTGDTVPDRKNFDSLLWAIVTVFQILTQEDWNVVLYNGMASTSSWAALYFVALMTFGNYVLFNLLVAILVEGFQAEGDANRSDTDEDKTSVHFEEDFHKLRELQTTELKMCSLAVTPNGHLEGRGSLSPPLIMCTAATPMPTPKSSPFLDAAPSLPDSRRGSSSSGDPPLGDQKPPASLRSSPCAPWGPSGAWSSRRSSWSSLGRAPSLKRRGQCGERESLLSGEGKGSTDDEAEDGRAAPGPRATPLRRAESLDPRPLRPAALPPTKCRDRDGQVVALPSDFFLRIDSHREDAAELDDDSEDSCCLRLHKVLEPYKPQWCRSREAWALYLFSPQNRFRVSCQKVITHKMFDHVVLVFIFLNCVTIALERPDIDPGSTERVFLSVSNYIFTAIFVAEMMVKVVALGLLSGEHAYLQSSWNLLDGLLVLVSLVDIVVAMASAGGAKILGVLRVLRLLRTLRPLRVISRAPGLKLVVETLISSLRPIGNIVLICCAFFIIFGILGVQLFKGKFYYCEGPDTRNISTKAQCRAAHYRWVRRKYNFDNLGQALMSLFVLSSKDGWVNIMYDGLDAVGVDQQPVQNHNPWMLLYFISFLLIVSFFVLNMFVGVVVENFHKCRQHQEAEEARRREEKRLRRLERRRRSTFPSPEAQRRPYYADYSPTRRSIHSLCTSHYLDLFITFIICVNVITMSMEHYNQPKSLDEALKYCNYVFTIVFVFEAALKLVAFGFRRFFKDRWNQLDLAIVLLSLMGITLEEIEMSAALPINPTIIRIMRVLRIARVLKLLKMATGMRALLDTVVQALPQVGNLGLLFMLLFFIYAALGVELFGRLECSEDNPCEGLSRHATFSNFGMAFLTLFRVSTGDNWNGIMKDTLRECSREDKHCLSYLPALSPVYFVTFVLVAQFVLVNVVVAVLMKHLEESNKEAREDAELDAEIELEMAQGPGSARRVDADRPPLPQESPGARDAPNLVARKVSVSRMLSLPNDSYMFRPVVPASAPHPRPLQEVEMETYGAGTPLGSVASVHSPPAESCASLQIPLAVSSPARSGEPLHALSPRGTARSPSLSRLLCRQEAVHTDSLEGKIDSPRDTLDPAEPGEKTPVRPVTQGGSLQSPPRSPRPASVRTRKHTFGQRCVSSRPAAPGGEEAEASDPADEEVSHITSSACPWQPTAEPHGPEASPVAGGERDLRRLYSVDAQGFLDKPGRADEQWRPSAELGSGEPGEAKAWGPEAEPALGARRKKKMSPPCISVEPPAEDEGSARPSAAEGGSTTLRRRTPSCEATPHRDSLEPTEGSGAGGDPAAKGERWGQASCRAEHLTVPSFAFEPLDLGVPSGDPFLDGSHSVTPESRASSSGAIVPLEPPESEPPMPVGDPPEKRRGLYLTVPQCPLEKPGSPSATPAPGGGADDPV
Compound,IC50 [1],also measured
CCN(CC)CC(=O)Nc1c(C)cccc1C [lidocaine],–,effect on chronic pain (chronic pain): effective to treat chronic pain
"NC1=N[C@H](O)[C@H]2[C@H]3O[C@]4(O)O[C@@H]([C@@H](O)[C@@]2(N1)[C@@H]4O)[C@]3(O)CO [TTX, tetrodotoxin]",–,effect on mechanical allodynic behavior (rats): significantly reduces mechanical allodynic behavior
"C[C@@H](NC(=O)[C@@H]1C[C@H]1c1nc2cc(F)ccc2[nH]1)c1ccc(OCC(F)(F)F)nc1 (relative stereo) [Example 289, (1R*,2R*)-2-(5-fluoro-1H-benzo[d]imidazol-2-yl)-N-((R)-1-(6-(2,2,2-trifluoroethoxy)pyridin-3-yl)ethyl) cyclopropanecarboxamide]",≤ 0.3 µM,–
"C[C@@H](NC(=O)C1CC1c1cc2ccccc2[nH]1)c1ccc(OCC(F)(F)F)cn1 (stereo in doubt) [Example 124, trans-2-(1H-indol-2-yl)-N-((R)-1-(5-(2,2,2-trifluoroethoxy)pyridin-2-yl)ethyl)cyclopropanecarboxamide]",≤ 0.3 µM,–
"C[C@@H](NC(=O)[C@H]1C[C@@H]1c1ccc(F)cc1Cl)c1ccc(OCC(F)(F)F)cn1 (relative stereo) [Example 246, (1S*,2S*)-2-(2-chloro-4-fluorophenyl)-N-((R)-1-(5-(2,2,2-trifluoroethoxy)pyridin-2-yl)ethyl)cyclopropanecarboxamide]",≤ 0.3 µM,–
"C[C@@H](NC(=O)C1CC1c1ccc2cnn(C)c2c1)c1cnc(OCC(F)(F)F)cn1 (stereo partly drawn) [Example 229, trans-2-(1-methyl-1H-indazol-6-yl)-N-((R)-1-(5-(2,2,2-trifluoroethoxy)pyrazin-2-yl)ethyl)cyclopropanecarboxemide]",≤ 0.3 µM,–
"C[C@@H](NC(=O)C1CC1c1cc2cc(F)ccc2[nH]1)c1ccc(OCC2CC2)cn1 (stereo in doubt) [Example 181, trans-N-((R)-1-(5-(cyclopropylmethoxy)pyridin-2-yl)ethyl)-2-(5-fluoro-1H-indol-2-yl)cyclopropanecarboxamide]",≤ 0.3 µM,–
"C[C@@H](NC(=O)[C@H]1C[C@@H]1c1c[nH]c2ccccc12)c1ccc(OCC(F)(F)F)cn1 (relative stereo) [Example 133, (1S*,2S*)-2-(1H-indol-3-yl)-N-((R)-1-(5-(2,2,2-trifluoroethoxy)pyridin-2-yl)ethyl)cyclopropanecarboxamide]",≤ 0.3 µM,–
"C[C@@H](NC(=O)[C@@H]1C[C@H]1c1ccc2cc[nH]c2c1)c1ccc(OCC(F)(F)F)cn1 (relative stereo) [Example 204, (1R*,2R*)-2-(1H-indol-6-yl)-N-((R)-1-(5-(2,2,2-trifluoroethoxy)pyridin-2-yl)ethyl)cyclopropanecarboxamide]",≤ 0.3 µM,–
"C[C@@H](NC(=O)[C@H]1C[C@@H]1c1cc2ccccc2[nH]1)c1ccc(OCC(F)(F)F)nc1 (relative stereo) [Example 223, (1S*,2S*)-2-(1H-indol-2-yl)-N-((R)-1-(6-(2,2,2-trifluoroethoxy)pyridin-3-yl)ethyl)cyclopropanecarboxamide]",≤ 0.3 µM,–
